Consider one compound from patent publication US20040009210A1, “Wound management products incorporating cationic compounds” (Kimberly-Clark Worldwide, Inc., priority 2002, published 2004).

Structures are written as SMILES.

A short description of the data set: Effective charge density of the cationic compound (measured). The class given is physicochemical.

On to `CCCCCCCC/C=C\CCCCCCCC(=O)NCC[N+]1=C(CCCCCCC/C=C\CCCCCCCC)N(C)CC1.COS(=O)(=O)[O-]` [cationic softener, 1-methyl-2-Noroleyl-3-oleyl amidoethyl imidazolinium methosulfate], for which the “effective charge density (measured)” value was “about 1300 microequivalents/gram”.
